Test results reported in patent US12215106B2, “Pharmaceutical compounds and therapeutic methods” (RUTGERS, THE STATE UNIVERSITY OF NEW JERSEY, priority 2018, dated 2025).
Where a name gives a salt, the structure may show the parent alone. Read-outs that look alike come from different tables or passages of the source.

Key:
[1] = tested on: PD-L1; assay: Western blotting of PD-L1 levels in GBM spheres; format: cell-based, human
[2] = in vitro; settings: pH 7.4; for % Remaining at 60 min (Buffer) / % Remaining at 60 min (+NADPH) / % Remaining at 60 min (−NADPH) / Percentage turnover in MLM (percent remaining), 60 min: 1 h; for % Remaining at 60 min (Buffer) / CLh, int / Percentage turnover in MLM (percent remaining), 0 min / Percentage turnover in MLM (percent remaining), 5 min / Percentage turnover in MLM (percent remaining), 15 min / Percentage turnover in MLM (percent remaining), 30 min / % Remaining at 60 min (+NADPH) / % Remaining at 60 min (−NADPH) / Percentage turnover in MLM (percent remaining), 60 min / Metabolic stability in liver microsomes, compound remaining: 1 μM; for CLh, int / Percentage turnover in MLM (percent remaining), 0 min / Percentage turnover in MLM (percent remaining), 5 min / Percentage turnover in MLM (percent remaining), 15 min / Percentage turnover in MLM (percent remaining), 30 min / % Remaining at 60 min (+NADPH) / % Remaining at 60 min (−NADPH) / Percentage turnover in MLM (percent remaining), 60 min / Metabolic stability in liver microsomes, compound remaining / half-life at 1 μM: mouse; for Percentage turnover in MLM (percent remaining), 0 min / Percentage turnover in MLM (percent remaining), 5 min / Percentage turnover in MLM (percent remaining), 15 min / Percentage turnover in MLM (percent remaining), 30 min / % Remaining at 60 min (+NADPH) / % Remaining at 60 min (−NADPH) / Percentage turnover in MLM (percent remaining), 60 min / Metabolic stability in liver microsomes, compound remaining / half-life at 1 μM: microsomes; for Percentage turnover in MLM (percent remaining), 0 min: 0 h; for Percentage turnover in MLM (percent remaining), 15 min: 0.25 h; for Percentage turnover in MLM (percent remaining), 30 min: 0.5 h; for Metabolic stability in liver microsomes, compound remaining: 60 min
Procedure: The objective of the study was to evaluate the metabolic stability of test compounds in liver microsomes from mice (MLM). This was accomplished by incubating test compounds with microsomes and monitoring disappearance with time using LCMS/MS. Imipramine in MLM was run as positive control.
Potassium phosphate buffer (Kphos) was prepared by adding 0.647 g potassium phosphate monobasic (KH2PO4) and 3.527 g potassium phosphate dibasic (K2HPO4) to 400 mL of Milli-Q water. pH of the buffer was adjusted to 7.4 and volume was made up to 500 mL.
Stock solutions of test compounds were prepared in DMSO at a concentration of 1 mM.
From the above mix, 70 μL was added to individual wells of 96 well reaction plates and pre-incubated at 37° C. for 5 min. […] Reactions without NADPH and buffer controls (minus NADPH) at 0 minutes and 60 minutes were also incubated to rule out non-NADPH metabolism or chemical instability in the incubation buffer. All reactions were terminated using 100 μL of ice-cold acetonitrile containing internal standard (glipizide) at 0, 5, 15, 30 and 60 minutes.
Samples were monitored for parent compounds disappearance in MRM mode using LC-MS/MS.
The percent remaining of test compounds and positive control in each sample was determined by considering peak area ratio in the 0 minute sample as 100%.
In vitro intrinsic clearance (CL'int) (units in mL/min/kg) was also calculated.

[3] = tested on: glioblastoma patient derived spheres; assay: MTT assay, cell viability of patient derived GBM spheres; format: cell-based; settings: Homo sapiens
From the text: To generate primary patient-derived GBM models for testing small molecule inhibitors, fresh primary tissues were received from patients undergoing surgical resection of WHO grade IV gliomas at Robert Wood Johnson University Hospital (RWJUH) under an approved IRB protocol. De-identified primary human GBM samples were delivered to the laboratory. Cells were obtained through mechanical dissociation of the tumor tissue using a blade and plated in DMEM/F12 medium (Gibco) in the presence of B-27 Supplement (Gibco, #17504-044), 20 ng/ml of human recombinant EGF (Gibco, #PHG0311L) and human recombinant FGF (Peprotech, #AF-100-18B). The following day, the culture was collected, incubated with Accutase (Gibco, #A11105-01) at 37° C. and passed through a 26G×⅜ needle (BD Precision Glide, #305110) to obtain a single cell suspension and re-plated in the same supplemented medium. Cells were cultured at low (5-6) passages in serum-free sphere 3D culture with mitogens that preserve the clonogenic stemness phenotype. […] different primary GBM cells (GBM #46, GBM #50, and GBM #76) were tested for cell viability after treatment with the inhibitors. Cell viability was measured using MTT assay. Briefly, one thousand cells per well were seeded in 96-well plates and exposed to drug in a total of 200 uL media. After 72 hours, 50 uL of stock concentration of 2.5 mg/mL 3-(4,5-dimethylthiazol-2-yl)-2,5-diphenyltetrazolium bromide (MTT) (Sigma, #M2128) dissolved in PBS was added to wells and incubated at 37° C. for 4 hours; read in a […] plate reader at 570 nm and compared to DMSO and untreated cells. The IC50 (defined as the concentration at which 50% of the cells were viable) was determined from the curve.
Novel compounds were synthesized and examined for their effectiveness on inhibiting the growth of patient derived GBM sphere cells that are more enriched in cancer stem-like cells (CSCs). An IC50 was established by measuring cell viability using a MTT assay when compared to vehicle control (DMSO) (FIG. 1-6).

[4] = Bi-directional Caco-2 transport assay; format: in vitro ADME; settings: human; for Papp at 90 min, 5 μM: Caco-2; for Papp A→B at 90 min, 5 μM / Papp B→A at 90 min, 5 μM: Caco-2, pH 7.4
Procedure: The objective of the study is to evaluate test compounds as substrates for efflux transporter using Caco-2 cell line. To assess the functionality of P-glycoprotein (P-gp), loperamide was run as a positive control (Apical and basolateral HBSS pH 7.4).
5 mM DMSO stock of test compounds and loperamide was diluted 1000-folds in HBSS having 0.1% DMSO to prepare concentrations of 5 μM.
Caco-2 cells were grown in DMEM (20% FBS) until 85-90% confluence. After attaining required confluence, cells were trypsinized and seeded into 24 well millcell plates at a density of 0.6×10^5 cells/insert. The plates were maintained for 21 days at 37° C. in CO2 incubator with change of medium every alternative day. Monolayer integrity was monitored by measuring Trans-epithelial electrical resistance (TEER) from day 15.
Caco-2 cell monolayer was washed twice with HBSS and incubated for 40 min in CO2 incubator. TEER values were measured and wells showing TEER values above 230 ohms·cm^2 were taken for experiments. The study was performed in loperamide and test compounds by adding 400 μL of loperamide prepared in HBSS in apical (A-B transport) followed by addition of 800 μL of HBSS on basal side and for B-A transport 800 μL of loperamide prepared in HBSS was dosed in basal followed by addition of 400 μL HBSS on apical side. At selected time points (0, 15, 30, 60 and 90 mins) an aliquot of 50 μL was collected from the receiver compartment for determination of test compound concentrations. The volume withdrawn was replaced immediately with HBSS buffer. TEER was measured at the end to the experiment to confirm any damage of monolayer while performing experiment. Those wells with TEER not meeting the criteria were excluded from the study.
A 50 μL of test compound samples collected at respective time points and submitted for LC-MS/MS analysis.
The apparent permeability (Papp) (A−B & B−A) of test compounds and positive control was calculated using the following formula: Papp=dQ/dt/A·Co where, dQ/dt=linear slope of test compound concentration in receptor chamber with time (0, 15, 30, 60 and 90 min) after correcting for dilution; A=area of the filter (0.7 cm^2); and Co=initial concentration of compound in the donor compartment.
Efflux ratio (RE) was calculated using the following equation: RE=PB/A/PA/B where PB/A and PA/B represent the apparent permeability of test compound from the basal to apical and apical to basal side of cell monolayer.
Recovery represents: (amount of the compound recovered from donor at end of incubation+cumulative amount of compound in acceptor at end of incubation+amount of the compound in cell lysate or assay well)/amount of compound in donor solution at time zero*100
Compounds are classified based on Papp values as follows:
A compound having efflux ratio of >2 is considered as having potential as a P-gp substrate.

[5] = 72 h, read-out: IC50, antitumor activity against glioblastoma patient derived spheres
[6] = read-out: Potency in patient derived GBM spheres

Row | Structure (SMILES) | PD-L1 levels, time-course ([1]; 7-10 nM, time-course of 120 hours) | % Remaining at 60 min (Buffer) [2] | CLh, int [2] | Percentage turnover in MLM (percent remaining), 0 min [2] | Percentage turnover in MLM (percent remaining), 5 min [2] | Percentage turnover in MLM (percent remaining), 15 min [2] | Percentage turnover in MLM (percent remaining), 30 min [2] | % Remaining at 60 min (+NADPH) [2] | % Remaining at 60 min (−NADPH) [2] | Percentage turnover in MLM (percent remaining), 60 min [2] | Metabolic stability in liver microsomes, compound remaining [2] | half-life at 1 μM [2] | IC50 ([3]; MTT, 72 hours, figure legends, read-out: IC50, antitumor activity against glioblastoma patient derived spheres) | IC50 ([3]; summary data, read-out: Potency in patient derived GBM spheres) | IC50 [3, 5] | IC50 [3, 6] | Papp at 90 min, 5 μM [4] | Papp A→B at 90 min, 5 μM [4] | Papp B→A at 90 min, 5 μM [4] | PDL1 levels ([1]; GBM spheres, Western blotting)
1 | COc1c(F)cc(Nc2nc(-c3c(C)nc4ccccn34)cs2)cc1F [Compound 14, hydrochloride] | modulate of the levels of PD-L1 | 66% | 550 mL/min/kg | 100% | 88% | 62% | 36% | 13% | 33% | 13% | < 50% | 20 min | 7 nM | 10 nM |  |  |  |  |  | 
2 | [2H]C([2H])([2H])Oc1ccc(Nc2nc(-c3c(C)nc4ccccn34)cs2)cc1 [Compound 15, N-(4-(methoxy-d3)phenyl)-4-(2-methylimidazo[1,2-c]pyridin-3-yl)thiazol-2-amine hydrochloride] |  | 85% | 215 mL/min/kg | 100% | 100% | 98% | 67% | 48% | 93% | 48% | < 50% | 52 min |  |  | 7 nM | 1000 nM |  |  |  | 
3 | Cc1nc2ccccn2c1-c1csc(Nc2ccc3c(c2)OC(F)(F)O3)n1 [Compound 16, N-(2,2-difluorobenzo[d][1,3]dioxol-5-yl)-4-(2-methylimidazo[1,2-a]pyridin-3-yl)thiazol-2-amine hydrochloride] |  | 87% | 759 mL/min/kg | 100% | 83% | 58% | 35% | 6% | 62% | 6% | < 50% | 15 min |  |  | 200 nM | 10 nM | 3 to 15 ×10⁻⁶ cm/s | 14 ± 3.3 ×10⁻⁶ cm/s | 12.1 ± 0.1 ×10⁻⁶ cm/s | 
4 | [2H]C1([2H])Oc2ccc(Nc3nc(-c4c(C)nc5ccccn45)cs3)cc2O1 [Compound 17, N-(benzo[d][1,3]dioxol-5-yl-2,2-d2)-4-(2-methylimidazo[1,2-c]pyridin-3-yl)thiazol-2-amine hydrochloride] |  | 101% | 953 mL/min/kg | 100% | 91% | 56% | 20% | 3% | 81% | 3% | < 50% | 12 min |  |  | 20 nM | 10 nM | 3 to 15 ×10⁻⁶ cm/s | 4.9 ± 0.8 ×10⁻⁶ cm/s | 6.4 ± 0.6 ×10⁻⁶ cm/s | increased PDL1
